PMC12677607, “Identification of a Pair of Linear or Cyclic Naturally Inspired Bifunctional Lipopeptide Antibiotics That Overcome Antimicrobial Resistance” (Advanced Science, 2025)
In brackets after ≈: the same amount, converted by molar mass. Square brackets hold non-standard residues; d marks the D form. Peptide text beside a SMILES is read from it. * marks the point of attachment. X2 = NC[C@H](Cc1ccc(O)cc1)N*; X1 = CC(C)[C@H](O)CC(=O)*; βAla = NCCC(=O)O

Tests used:
[1] = system: Staphylococcus aureus Newman; test: microbe, parasite or virus in culture; format: cell-based; settings: 16 h
How it was run: (§1)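 Broth microdilution in LB, run in two independent repeats. Overnight cultures were diluted 5000-fold, except S. aureus at 10000-fold, and mixed with peptide-containing LB (2-fold series, 64 to 0.125 µg mL^−1 before mixing). MIC is the lowest concentration that prevented visible growth.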

[2] = system: Staphylococcus aureus ATCC 6538; test: microbe, parasite or virus in culture; format: cell-based
How it was run: as §1

[3] = system: Streptococcus pyogenes ATCC 19615; test: microbe, parasite or virus in culture; format: cell-based
How it was run: as §1

[4] = system: Enterococcus faecium 35682; test: microbe, parasite or virus in culture; format: cell-based
How it was run: as §1

Enterococcus faecalis 28 = test: microbe, parasite or virus in culture; format: cell-based
How it was run: as §1

[5] = system: Streptococcus mutans ATCC 25175; test: microbe, parasite or virus in culture; format: cell-based
How it was run: as §1

[6] = system: Staphylococcus aureus ATCC 25923; test: microbe, parasite or virus in culture; format: cell-based
How it was run: as §1

Enterococcus faecalis 26 = test: microbe, parasite or virus in culture; format: cell-based
How it was run: as §1

[7] = system: Staphylococcus aureus USA300; test: microbe, parasite or virus in culture; format: cell-based
How it was run: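 Growth inhibition read visually; MIC taken as lowest inhibitory concentration. LB medium; inocula from overnight cultures diluted 5000-fold, S. aureus 10000-fold. Peptide range 64 to 0.125 µg mL^−1 (2-fold, pre-mix), two independent determinations.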

[8] = system: Enterococcus faecalis ATCC 29212; test: microbe, parasite or virus in culture; format: cell-based
How it was run: as §1

[9] = system: Mycobacterium smegmatis mc2155; test: microbe, parasite or virus in culture; settings: Mycolicibacterium smegmatis, MC2155, read-out: MIC Mycobacterium smegmatis mc2155
[10] = system: Acinetobacter baumannii ATCC 19606; test: microbe, parasite or virus in culture; format: cell-based; settings: ATCC 19606, 16 h
How it was run: as §1

[11] = system: Klebsiella pneumoniae NCTC 5056; test: microbe, parasite or virus in culture; format: cell-based; settings: NCTC 5056, 16 h
How it was run: as §1

[12] = system: Klebsiella pneumoniae ATCC 13883; test: microbe, parasite or virus in culture; format: cell-based; settings: ATCC 13883, 16 h
How it was run: as §1

[13] = system: Pseudomonas aeruginosa PAO1; test: microbe, parasite or virus in culture; format: cell-based; settings: PAO1, 16 h
How it was run: as §1

[14] = system: Acinetobacter baumannii P53; test: microbe, parasite or virus in culture; format: cell-based; settings: Table S11; LB broth, 37 °C, 16 h, n = 2
How it was run: as §1

[15] = system: Vibrio alginolyticus XSBZ14; test: microbe, parasite or virus in culture; format: cell-based; settings: 16 h
How it was run: as §1

[16] = system: Acinetobacter baumannii ATCC 17978; test: microbe, parasite or virus in culture; format: cell-based; settings: ATCC 17978, 16 h
How it was run: as §1

[17] = system: Klebsiella pneumoniae CRKP 5452; test: microbe, parasite or virus in culture; format: cell-based; settings: Table S11; LB broth, 37 °C, 16 h, n = 2
How it was run: as §1

[18] = system: Salmonella enterica ATCC 14028; test: microbe, parasite or virus in culture; format: cell-based; settings: ATCC 14028, 16 h
How it was run: as §1

[19] = system: Klebsiella pneumoniae CRKP HS11286; test: microbe, parasite or virus in culture; format: cell-based; settings: CRKP HS11286, 16 h
How it was run: as §1

[20] = system: Pseudomonas aeruginosa ATCC 9027; test: microbe, parasite or virus in culture; format: cell-based; settings: ATCC 9027, 16 h
How it was run: as §1

[21] = system: Acinetobacter baumannii 1104008; test: microbe, parasite or virus in culture; format: cell-based; settings: Table S11; LB broth, 37 °C, 16 h, n = 2
How it was run: as §1

[22] = system: Salmonella typhimurium LXX; test: microbe, parasite or virus in culture; format: cell-based; settings: murium LXX, 16 h
How it was run: as §1

[23] = system: Candida albicans ATCC 10231; test: MIC assay (YPD broth); format: cell-based; settings: Table S11; YPD broth, 30 °C, 16 h, n = 2
Procedure: (§2) All MIC assays were performed two independent times (n = 2) in 96‐well plates using a broth micro‐dilution method. The lowest concentration of that inhibited visible microbial growth was recorded as the MIC value.
(§3) For fungal strains, overnight cultures were diluted 2000‐fold in YPD broth. 100 µL of diluted cells was mixed with 100 µL of YPD broth containing each peptide ranging from […] 64 to 0.125 µg mL^−1 at 2‐fold serial dilutions.

Escherichia coli DH5α = test: MIC assay (broth micro-dilution); format: cell-based; settings: Table S11; LB broth, 37 °C, 16 h, n = 2
How it was run: as §1

Shigella Castellani LXX = test: MIC assay (broth micro-dilution); format: cell-based; settings: Table S11; LB broth, 37 °C, 16 h, n = 2
How it was run: as §1

B. subtilis ATCC 23857 = test: MIC assay (broth micro-dilution); format: cell-based; settings: Table S11; LB broth, 37 °C, 16 h, n = 2
How it was run: as §1

[24] = system: Candida albicans ATCC 64550; format: cell-based; settings: ATCC 64550, 16 h
Procedure: as §2, §3

[25] = system: Gram negative and positive bacteria; set-up: method as in 2 sources, one per row (each row's own in cited_ref): ref 49 (a number printed in a supplementary file, which may have a reference list of its own: not looked up in the article's list) ||| ref 50 (a number printed in a supplementary file, which may have a reference list of its own: not looked up in the article's list); settings: Figure S20, known paired peptides; cited from earlier work
[26] = set-up: method as in earlier work; settings: Figure S20; cited from earlier work
[27] = set-up: method as in earlier work; settings: Figure S20; cited from earlier work; remark: listed apart in the source
[28] = Table S11, LB broth, 37 °C, 16 h, n = 2

**Q.** What does the source list for `CN[C@H](CC(C)C)C(=O)N[C@H]1C(=O)N[C@@H](CC(N)=O)C(=O)N[C@H]2C(=O)N[C@H]3C(=O)N[C@H](C(=O)N[C@H](C(=O)O)c4cc(O)cc(O)c4-c4cc3ccc4O)[C@H](O)c3ccc(c(Cl)c3)Oc3cc2cc(c3O[C@@H]2O[C@H](CO)[C@@H](O)[C@H](O)[C@H]2O[C@H]2C[C@](C)(N)[C@H](O)[C@H](C)O2)Oc2ccc(cc2Cl)[C@H]1O` [Vancomycin, reference compound]?
**A.** MIC ([1]; Staphylococcus aureus, NEWMAN, read-out: MIC Staphylococcus aureus Newman): 0.5 µg/mL (≈ 0.345 µM); MIC ([2]; Staphylococcus aureus, ATCC6538, 16 h, read-out: MIC Staphylococcus aureus ATCC 6538): 1 µg/mL (≈ 0.69 µM); MIC ([3]; Streptococcus pyogenes, ATCC19615, 16 h, read-out: MIC Streptococcus pyogenes ATCC 19615): 0.5 µg/mL (≈ 0.345 µM); MIC ([4]; Enterococcus faecium, 35682, 16 h, read-out: MIC Enterococcus faecium 35682): > 64 µg/mL; MIC (Enterococcus faecalis 28; Enterococcus faecalis, 28, 16 h, read-out: MIC Enterococcus faecalis 28): > 64 µg/mL; MIC ([5]; Streptococcus mutans, ATCC25175, 16 h, read-out: MIC Streptococcus mutans ATCC 25175): 2 µg/mL (≈ 1.38 µM); MIC ([6]; Staphylococcus aureus, ATCC25923, 16 h, read-out: MIC Staphylococcus aureus ATCC 25923): 1 µg/mL (≈ 0.69 µM); MIC (Enterococcus faecalis 26; Enterococcus faecalis, 26, 16 h, read-out: MIC Enterococcus faecalis 26): 1 µg/mL (≈ 0.69 µM); MIC ([7]; Staphylococcus aureus, USA300, 16 h, read-out: MIC Staphylococcus aureus USA300): 1 µg/mL (≈ 0.69 µM); MIC ([8]; Enterococcus faecalis, ATCC29212, 16 h, read-out: MIC Enterococcus faecalis ATCC 29212): 2 µg/mL (≈ 1.38 µM); MIC [9]: > 64 µg/mL

**Q.** For `CC[C@H](C)[C@H](NC(=O)[C@@H](NC(=O)[C@@H](C)NC(=O)[C@H](C)NC(=O)[C@@H](NC(=O)C[C@@H](O)C(C)C)C(C)C)[C@@H](C)CC)C(=O)NCCC(=O)N[C@@H](CC(C)C)C(=O)N[C@H](C)C(=O)N[C@H](C(=O)N[C@H](CN)Cc1ccc(O)cc1)[C@@H](C)CC` [synAQU4-L] (X1-VA[dA]II[βAla]L[dA]I-X2), which “MIC Staphylococcus aureus Newman” value ([1]; Newman) is on record?
**A.** > 64 µg/mL

**Q.** And the “MIC Staphylococcus aureus ATCC 6538” value ([2]; ATCC 6538, 16 h)?
**A.** > 64 µg/mL

**Q.** What about the “MIC Acinetobacter baumannii ATCC 19606” value [10] of the same molecule?
**A.** > 64 µg/mL

**Q.** What about the “MIC Streptococcus pyogenes ATCC 19615” value [3, 28] of the same molecule?
**A.** 4 µg/mL (≈ 3.58 µM)

**Q.** And the “MIC Enterococcus faecium 35682” value ([4]; 35682, 16 h)?
**A.** > 64 µg/mL

**Q.** What about the “MIC Klebsiella pneumoniae NCTC 5056” value [11] of the same molecule?
**A.** > 64 µg/mL

**Q.** And the “MIC Klebsiella pneumoniae ATCC 13883” value [12]?
**A.** > 64 µg/mL

**Q.** And the “MIC Pseudomonas aeruginosa PAO1” value [13]?
**A.** > 64 µg/mL

**Q.** And the “MIC Acinetobacter baumannii P53” value [14]?
**A.** > 64 µg/mL

**Q.** And the “MIC Enterococcus faecalis 28” value (Enterococcus faecalis 28; 28, 16 h)?
**A.** > 64 µg/mL

**Q.** What about the “MIC Streptococcus mutans ATCC 25175” value ([5]; ATCC 25175, 16 h) of the same molecule?
**A.** 16 µg/mL (≈ 14.3 µM)

**Q.** And the “MIC Staphylococcus aureus ATCC 25923” value ([6]; ATCC 25923, 16 h)?
**A.** > 64 µg/mL

**Q.** What about the “MIC Vibrio alginolyticus XSBZ14” value [15] of the same molecule?
**A.** > 64 µg/mL

**Q.** And the “MIC Acinetobacter baumannii ATCC 17978” value [16]?
**A.** > 64 µg/mL

**Q.** And the “MIC Klebsiella pneumoniae CRKP 5452” value [17]?
**A.** > 64 µg/mL

**Q.** And the “MIC Enterococcus faecalis 26” value (Enterococcus faecalis 26; 26, 16 h)?
**A.** > 64 µg/mL

**Q.** What about the “MIC Staphylococcus aureus USA300” value [7, 28] of the same molecule?
**A.** > 64 µg/mL

**Q.** And the “MIC Salmonella enterica ATCC 14028” value [18]?
**A.** > 64 µg/mL

**Q.** And the “MIC Klebsiella pneumoniae CRKP HS11286” value [19]?
**A.** > 64 µg/mL

**Q.** What about the “MIC Pseudomonas aeruginosa ATCC 9027” value [20] of the same molecule?
**A.** > 64 µg/mL

**Q.** And the “MIC Acinetobacter baumannii 1104008” value [21]?
**A.** > 64 µg/mL

**Q.** What about the “MIC Enterococcus faecalis ATCC 29212” value ([8]; ATCC 29212, 16 h) of the same molecule?
**A.** > 64 µg/mL

**Q.** What about the “MIC Salmonella typhimurium LXX” value [22] of the same molecule?
**A.** > 64 µg/mL

**Q.** And the “MIC Candida albicans ATCC 10231” value [23]?
**A.** > 64 µg/mL

**Q.** What about the “MIC Escherichia coli DH5α” value (Escherichia coli DH5α) of the same molecule?
**A.** > 64 µg/mL

**Q.** And the “MIC Shigella Castellani LXX” value (Shigella Castellani LXX)?
**A.** > 64 µg/mL

**Q.** And the “MIC Bacllussubtilis ATCC 23857” value (B. subtilis ATCC 23857)?
**A.** > 64 µg/mL

**Q.** What about the “MIC Candida albicans ATCC 64550” value [24] of the same molecule?
**A.** > 64 µg/mL

**Q.** Which antibacterial activity [25] does the source give for Bacaucin here?
**A.** Broad antibacterial activity

**Q.** What about the cytotoxic activity [26] of the same molecule?
**A.** Cyt ot oxic

**Q.** And the hemolytic activity [27]?
**A.** He mo l y t i c

**Q.** Which results are given for Bacaucin-1?
**A.** antibacterial activity [25]: Specific anti-bacterial activity against MR S A; cytotoxic activity [26]: No cytotoxic activity; hemolytic activity [27]: No hemolytic activity
